The values that follow come from patent publication US20170349593A1, “BTK INHIBITORS” (MERCK SHARP & DOHME CORP., priority 2014, published 2017).

Each structure is given as a SMILES string.

The target of assay [1] is T1, BTK enzyme (recombinant full-length BTK, hBTK) (Homo sapiens, UniProt Q06187).
T1 construct: recombinant protein from baculovirus-transfected S 19 cells: full-length BTK, 6 HIS-tag cleaved; 6 HIS-tag (cleaved yes); made in house
Nature of the assay: Btk enzyme activity assay (LANCE TR-FRET). In kind it is biochemical. The note with it: 50 pM hBTK, 25 μM ATP, 60 minute compound and enzyme incubation, concentration range 1 μM to 0.017 nM, read-out: BTK binding IC50.

The subject of assay [2] is adenosine uptake into HeLa cells. Nature of the assay: [3H]Adenosine uptake assay. Format: cell-based. To be noted: Homo sapiens; accumulation of [3H]adenosine into HeLa cells; concentration range 10 μM to 0.032 nM; read-out: ADU inhibition IC50. Here is the method: Compounds are also screened in an adenosine uptake functional cellular assay using the protocol described below:
Adenosine uptake activity was determined by monitoring the accumulation of tritiated adenosine into HeLa cells (ATCC catalog #CCL-2) using a PMT-based radiometric detection instrument. In this assay, the potency (IC50) of each compound was determined from a ten point (1:3 serial dilution; final compound concentration range in assay from 10 μM to 0.032 nM) titration curve using the following outlined procedure. To each well of a 96-well CytoStar-T scintillating microplate (Perkin Elmer Catalog #RPNQ0163), 25 000 HeLa cells in 100 μL of growth medium comprising: Minimum Essential Media (Life Technologies Catalog #11095-080)+10% (v/v) foetal bovine serum (FBS; Sigma Aldrich Catalog #F2442) was added. These cells were incubated overnight at 37° C. in a humidified atmosphere with 5% (v/v) CO2. After this time the growth medium was removed and replaced with 40 μL assay medium comprising: Hanks balanced salts solution (HBSS; Thermo Fisher Catalog # SH30268.01)+5% (v/v) FBS. Compound stock solutions in DMSO were diluted in assay medium to 2.5× final compound concentration maintaining a constant DMSO concentration of 0.25% (v/v). 40 μL of compound in assay medium was dispensed into individual wells of the Cytostar-T plates and the plates were incubated for 30 minutes under ambient laboratory conditions. Following this incubation, 20 μL of 500 nM [^3H] adenosine (American Radiolabeled Chemicals Inc. Catalog #ART0287) in assay medium was added and incubated for a further 60 minutes under ambient laboratory conditions. The amount of radiolabel accumulation was then determined using a Perkin Elmer Topcount NXT microplate reader. In brief, HeLa cells adhere to the bottom of the Cytostar-T plate, uptake of [^3H]adenosine into these cells brings the radiolabel into sufficient proximity to excite the scintillant in the base of the plates. These events are captured by single PMT, time-resolved coincidence counting. IC50 values were determined by 4 parameter robust fit of counts per second values vs. (Log10)) compound concentrations.

T1 sequence (Q06187 whole entry): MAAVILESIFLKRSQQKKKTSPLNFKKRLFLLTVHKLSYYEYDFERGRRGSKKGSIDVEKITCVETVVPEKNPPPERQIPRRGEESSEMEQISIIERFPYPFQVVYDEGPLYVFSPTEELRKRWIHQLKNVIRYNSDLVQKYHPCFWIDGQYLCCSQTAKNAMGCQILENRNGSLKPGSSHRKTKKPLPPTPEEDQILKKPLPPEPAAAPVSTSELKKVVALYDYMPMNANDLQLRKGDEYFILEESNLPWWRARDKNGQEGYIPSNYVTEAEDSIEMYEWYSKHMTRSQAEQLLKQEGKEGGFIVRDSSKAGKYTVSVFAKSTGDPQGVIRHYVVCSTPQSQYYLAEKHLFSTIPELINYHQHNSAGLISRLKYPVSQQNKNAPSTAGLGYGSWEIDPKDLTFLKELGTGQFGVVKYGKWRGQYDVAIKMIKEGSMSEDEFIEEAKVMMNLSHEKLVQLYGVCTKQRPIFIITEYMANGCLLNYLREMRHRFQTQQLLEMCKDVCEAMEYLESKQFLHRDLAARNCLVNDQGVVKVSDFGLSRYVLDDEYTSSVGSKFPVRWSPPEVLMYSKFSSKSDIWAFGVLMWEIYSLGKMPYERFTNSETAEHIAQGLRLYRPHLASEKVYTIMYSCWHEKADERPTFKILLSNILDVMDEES

Regarding `COc1cc(C(=O)Nc2cc(C(F)(F)F)ccn2)ccc1-c1nc([C@H]2CN(C3CN(C(=O)C4CC4)C3)[C@@H](C)CO2)n2ccnc(N)c12` [Example 29, 4-(8-amino-3-{(2R,5S)-4-[1-(cyclopropylcarbonyl)azetidin-3-yl]-5-methylmorpholin-2-yl}imidazo[1,5-a]pyrazin-1-yl)-3-methoxy-N-[4-(trifluoromethyl)pyridin-2-yl]benzamide], the IC50 in assay [1] was 3.45 nM; in assay [2] it was 3860 nM.

In the case of `COc1cc(C(=O)Nc2cc(C(F)(F)F)ccn2)ccc1-c1nc([C@H]2CN(C3CN(Cc4c(F)cccc4F)C3)[C@@H](C)CO2)n2ccnc(N)c12` [Example 30, 4-(8-amino-3-{(2R,5S)-4-[1-(2,6-difluorobenzyl)azetidin-3-yl]-5-methylmorpholin-2-yl}imidazo[1,5-a]pyrazin-1-yl)-3-methoxy-N-[4-(trifluoromethyl)pyridin-2-yl]benzamide], the half-maximal inhibitory concentration (IC50) in assay [1] was determined as 10.7 nM; in assay [2], 1040 nM.

Turning to `COc1cc(C(=O)Nc2cc(C(F)(F)F)ccn2)ccc1-c1nc([C@H]2CN(C3CN(Cc4ccc(F)cc4)C3)[C@@H](C)CO2)n2ccnc(N)c12` [Example 31, 4-(8-amino-3-{(2R,5S)-4-[1-(4-fluorobenzyl)azetidin-3-yl]-5-methylmorpholin-2-yl}imidazo[1,5-a]pyrazin-1-yl)-3-methoxy-N-[4-(trifluoromethyl)pyridin-2-yl]benzamide], the concentration for half-maximal inhibition (IC50) in assay [1] amounted to 4.49 nM; in assay [2], 1040 nM.

For the compound `COc1cc(C(=O)Nc2cc(C(F)(F)F)ccn2)ccc1-c1nc([C@H]2CN(C3CN(Cc4ccccc4F)C3)[C@@H](C)CO2)n2ccnc(N)c12` [Example 32, 4-(8-amino-3-{(2R,5S)-4-[1-(2-fluorobenzyl)azetidin-3-yl]-5-methylmorpholin-2-yl}imidazo[1,5-a]pyrazin-1-yl)-3-methoxy-N-[4-(trifluoromethyl)pyridin-2-yl]benzamide], the concentration for half-maximal inhibition (IC50) in assay [1] worked out at 6.41 nM; in assay [2], 1070 nM.

With `COCCC(=O)N1CC(C(=O)N2C[C@H](c3nc(-c4ccc(C(=O)Nc5cc(C(F)(F)F)ccn5)cc4OC)c4c(N)nccn34)OC[C@@H]2C)C1` [Example 33, 4-{8-amino-3-[(2R,5S)-4-{[1-(3-methoxypropanoyl)azetidin-3-yl]carbonyl}-5-methylmorpholin-2-yl]imidazo[1,5-a]pyrazin-1-yl}-3-methoxy-N-[4-(trifluoromethyl)pyridin-2-yl]benzamide], the IC50 is 2.05 nM in assay [1] and at least 10000 nM in assay [2].

For the compound `COc1cc(C(=O)Nc2cc(C(F)(F)F)ccn2)ccc1-c1nc([C@H]2CN(C(=O)C3CN(C(=O)C4CC4)C3)[C@@H](C)CO2)n2ccnc(N)c12` [Example 34, 4-{8-amino-3-[(2R,5S)-4-{[1-(cyclopropylcarbonyl)azetidin-3-yl]carbonyl}-5-methylmorpholin-2-yl]imidazo[1,5-a]pyrazin-1-yl}-3-methoxy-N-[4-(trifluoromethyl)pyridin-2-yl]benzamide], the IC50 in assay [1] was 2.65 nM; in assay [2], at least 10000 nM.

With `COc1cc(C(=O)Nc2cc(C(F)(F)F)ccn2)ccc1-c1nc([C@H]2CN(C(=O)C3CN(Cc4c(F)cccc4F)C3)[C@@H](C)CO2)n2ccnc(N)c12` [Example 35, 4-{8-amino-3-[(2R,5S)-4-{[1-(2,6-difluorobenzyl)azetidin-3-yl]carbonyl}-5-methylmorpholin-2-yl]imidazo[1,5-a]pyrazin-1-yl}-3-methoxy-N-[4-(trifluoromethyl)pyridin-2-yl]benzamide], the figures for the half-inhibitory concentration (IC50) in assay [1] and in assay [2] were 3.21 nM and 747 nM, respectively.

`COc1cc(C(=O)Nc2cc(C(F)(F)F)ccn2)ccc1-c1nc([C@H]2CN(C=O)[C@@H](C)CO2)n2ccnc(N)c12` [Example 36, 4-{8-amino-3-[(2R,5S)-4-formyl-5-methylmorpholin-2-yl]imidazo[1,5-a]pyrazin-1-yl}-3-methoxy-N-[4-(trifluoromethyl)pyridin-2-yl]benzamide]: the half-maximal inhibitory concentration (IC50) in assay [1] worked out at 9.31 nM; in assay [2] it was 1680 nM.

Consider `COc1cc(C(=O)Nc2cc(C(F)(F)F)ccn2)ccc1-c1nc([C@H]2CN(C(=O)C3CN(Cc4ccccc4F)C3)[C@@H](C)CO2)n2ccnc(N)c12` [Example 37, 4-{8-amino-3-[(2R,5S)-4-{[1-(2-fluorobenzyl)azetidin-3-yl]carbonyl}-5-methylmorpholin-2-yl]imidazo[1,5-a]pyrazin-1-yl}-3-methoxy-N-[4-(trifluoromethyl)pyridin-2-yl]benzamide], for which the IC50 in assay [1] worked out at 2.77 nM; in assay [2] it was 702 nM.

For `COc1cc(C(=O)Nc2cc(C(F)(F)F)ccn2)ccc1-c1nc([C@H]2CN(C(=O)[C@H](C)O)[C@@H](C)CO2)n2c(Cl)cnc(N)c12` [Example 38, 4-(8-amino-5-chloro-3-{(2R,5S)-4-[(2S)-2-hydroxypropanoyl]-5-methylmorpholin-2-yl}imidazo[1,5-a]pyrazin-1-yl)-3-methoxy-N-[4-(trifluoromethyl)pyridin-2-yl]benzamide], the IC50 in assay [1] was determined as 2.25 nM; in assay [2] it was 2800 nM.

Consider `CCOc1cc(C(=O)Nc2cc(C(F)(F)F)n(C)n2)ccc1-c1nc([C@H]2CN(C3CCOCC3)[C@@H](C)CO2)n2ccnc(N)c12` [Example 39, 4-{8-amino-3-[(2R,5S)-5-methyl-4-(tetrahydro-2H-pyran-4-yl)morpholin-2-yl]imidazo[1,5-a]pyrazin-1-yl}-3-ethoxy-N-[1-methyl-5-(trifluoromethyl)-1H-pyrazol-3-yl]benzamide], for which the figures for the IC50 in assay [1] and in assay [2] were 5.87 nM and 3800 nM, respectively.

For the compound `CCOc1cc(C(=O)Nc2cc(C(F)(F)F)n(C)n2)ccc1-c1nc([C@H]2CN(C3CCOCC3)[C@@H](C)CO2)n2c(Cl)cnc(N)c12` [Example 40, 4-{8-amino-5-chloro-3-[(2R,5S)-5-methyl-4-(tetrahydro-2H-pyran-4-yl)morpholin-2-yl]imidazo[1,5-a]pyrazin-1-yl}-3-ethoxy-N-[1-methyl-5-(trifluoromethyl)-1H-pyrazol-3-yl]benzamide], the half-inhibitory concentration (IC50) in assay [1] was found to be 5.87 nM; in assay [2], 4620 nM.

In the case of `C[C@H]1CO[C@@H](c2nc(-c3ccc(C(=O)Nc4cc(C(F)(F)F)ccn4)cc3F)c3c(N)ncc(Cl)n23)CN1C(=O)C1CC1` [Example 41, 4-{8-amino-5-chloro-3-[(2R,5S)-4-(cyclopropylcarbonyl)-5-methylmorpholin-2-yl]imidazo[1,5-a]pyrazin-1-yl}-3-fluoro-N-[4-(trifluoromethyl)pyridin-2-yl]benzamide], the figures for the IC50 in assay [1] and in assay [2] were 0.626 nM and 383 nM, respectively.

Consider `C[C@H](O)C(=O)N1C[C@H](c2nc(-c3ccc(C(=O)Nc4cc(C(F)(F)F)ccn4)cc3F)c3c(N)ncc(Cl)n23)OC[C@@H]1C` [Example 42, 4-(8-amino-5-chloro-3-{(2R,5S)-4-[(2S)-2-hydroxypropanoyl]-5-methylmorpholin-2-yl}imidazo[1,5-a]pyrazin-1-yl)-3-fluoro-N-[4-(trifluoromethyl)pyridin-2-yl]benzamide], for which the half-maximal inhibitory concentration (IC50) in assay [1] was determined as 0.4 nM; in assay [2], 364 nM.

`C[C@H]1CO[C@@H](c2nc(-c3ccc(C(=O)Nc4cc(C(F)(F)F)ccn4)cc3)c3c(N)ncc(Cl)n23)CN1C(=O)C1CC1` [Example 43, 4-{8-amino-5-chloro-3-[(2R,5S)-4-(cyclopropylcarbonyl)-5-methylmorpholin-2-yl]imidazo[1,5-a]pyrazin-1-yl}-N-[4-(trifluoromethyl)pyridin-2-yl]benzamide]: the IC50 in assay [1] amounted to 0.784 nM; in assay [2] it was 562 nM.
